Data taken from patent US12428455B2, “Dominant negative CEBPB and CEBPD proteins and methods of use for decreasing viability of neoplastic cells” (The Trustees of Columbia University in the City of New York, priority 2018, dated 2025).
No end group written: not given here.

Experiments:
T98G cells = assay: Colony forming activity on culture plates, T98G; assay type: cell-based; conditions: 6 days; doses 0.05, 0.5 and 5 μM
Protocol: T98G (FIG. 21A), MDA-MB 231 (FIG. 21B), and HCT116 (FIG. 21C) cells were exposed to CP-DN-CEBPB and CP-DN-CEBPD for 6 days at doses of 0.05 μM 0.5 μM, and 5 μM while growing in soft agar. Growth was inhibited by does as low as 0.5 μM. T98G (FIG. 21D), MDA-MB 231 (FIG. 21E), and HCT116 (FIG. 21F) cells were exposed to CP-DN-CEBPB and CP-DN-CEBPD for 6 days at doses of 0.05 μM 0.5 μM, and 5 μM while growing on culture plates. Growth was inhibited by does as low as 0.5 μM.

A375 melanoma cells = assay: Cell number after peptide treatment, A375; assay type: cell-based; conditions: 6 days, 0 μM to 50 μM; stock without BSA
Protocol: Replicate cultures were exposed to the peptides the for 6 days at the indicated concentrations. Stock solutions of the peptides were prepared in buffer without added bovine serum albumin (BSA).

BMF transcripts = assay: qPCR for BMF transcripts; assay type: cell-based; conditions: 20 μM, 3 days; T98G, MDA-MB-231, MCF7, A375 and HCT116 cells
Protocol: T98G, MDA-MB-231, MCF7, A375, and HCT116 cells were treated with or without 20 μM CP-dn-CEBPB or CP-dn-CEBPD for 3 days and then assessed by qPCR for relative levels of BMF transcripts (FIG. 35A, T98G; FIG. 35B, MDA-MB-231; FIG. 35C, MCF7; FIG. 35D, A375; FIG. 35E, HCT116).

MCF7 cells = assay: Combination with paclitaxel, cell number, MCF7; assay type: cell-based; conditions: 1 nM or 5 nM paclitaxel and 3, 10 or 20 μM peptide, 6 days
Protocol: Replicate cultures of T98G, MDA-MB 231, and MCF7 cells were treated with 1 nM or 5 nM paclitaxel and 3 μM, 10 μM, or 20 μM CP-dn-CEBPB and CP-dn-CEBPD peptides, maintained for 6 days, and then assessed for cell number. The bar graphs of FIGS. 26A (T98G, CP-dn-CEBPB), 26C (T98G, CP-dn-CEBPBD, 26E (MDA-MB-231, CP-dn-CEBPBD), 26G (MDA-MB-231, CP-dn-CEBPD), 26I (MCF7, CP-dn-CEBPBB), and 26K (MCF7, CP-dn-CEBPBD) show relative cell numbers for each condition as compared to untreated controls. The line graphs of FIGS. 26B (T98G, CP-dn-CEBPB), 26D (T98G, CP-dn-CEBPBD), 26F (MDA-MB-231, CP-dn-CEBPB), 26H (MDA-MB-231, CP-dn-CEBPD), 26J (MCF7, CP-dn-CEBPB), and 26L (MCF7 CP-dn-CEBPBD) show the response as normalized in each case so that 100 represents the relative number of surviving cells that received the indicated level of paclitaxel, but no peptide treatment. Calculated combination indices (CI) were as follows: MCF7: CI=0.41±0.04 for CP-dn-CEBPB; 0.44±0.04 for CP-dn-CEBPD; MDA-MB-231: 0.74±0.03 for CP-dn-CEBPB; 0.74±0.05 for CP-dn-CEBPD; T98G: CI=0.84±0.06 for CP-dn-CEBPB and 0.75±0.07 for CP-dn-CEBPD.

HCT116 cells = assay: HCT116 subcutaneous tumors; assay type: in vivo, NCR nude mice; conditions: 20 mg/kg intraperitoneally
Protocol: HCT116 cells were subcutaneously implanted in the flanks of NCR nude mice. After tumors formed, the animals were treated intraperitoneally with 20 mg/kg of CP-dn-CEBPD or vehicle as indicated in the schema shown FIG. 40A. Animal weight was monitored (FIG. 40). […] FIG. 40D compares calculated individual and mean tumor volumes for vehicle and CP-dn-CEBPD treated animals on day 11.

BMF = assay: Apoptotic nuclei after BMF knockdown siRNA and CP-dn-CEBPD; assay type: cell-based; conditions: siRNA 2 days, then 20 μM peptide 2 days; T98G, MCF7, A375 and HCT116 cells
Protocol: T98G, MCF7, A375, and HCT116 cells were treated with one of two BMF knockdown siRNAs or control siRNA for 2 days, then treated with or without 20 μM CP-dn-CEBPD for 2 days. Cultures were assessed for % of apoptotic nuclei (n=6 random fields) (FIG. 36A, T98G; FIG. 36B, MCF7; FIG. 38C, A375; FIG. 36D, HCT116).

B16-F10 cells = assay: B16-F10 subcutaneous tumors; assay type: in vivo, C56BL/6 mice; conditions: 20 or 50 mg/kg intraperitoneally
Protocol: B16-F10 cells were subcutaneously implanted in the flanks of C56BL/6 mice. After the tumors were established, the mice were treated intraperitoneally with 20 or 50 mg/kg of CP-dn-CEBPD or vehicle as indicated in the schema shown in FIG. 38A. Animal weight was monitored (FIG. 38B). […] FIG. 38D compares calculated individual and mean tumor volumes for each group of animals on day 12.

A375 cells = assay: A375 subcutaneous tumors, 20 mg/kg survival study; assay type: in vivo, NCR nude mice; conditions: 20 mg/kg intraperitoneally
Protocol: A375 cells were subcutaneously implanted in the flanks of NCR nude mice. Once tumors had formed, the animals were treated intraperitoneally with 20 mg/kg of CP-dn-CEBPD or vehicle as indicated in the schema shown in FIG. 39A. Animal weight was monitored (FIG. 39B). Tumor sizes were measured and volumes calculated on each day of injection. […] FIG. 39D compares calculated individual and mean tumor volumes for vehicle and CP-dn-CEBPD treated animals on day 28.

A375 xenograft tumors = assay: TUNEL staining of A375 xenograft tumors; assay type: in vivo, mice; conditions: 20 mg/kg, retreated 2 days later, tumors harvested after additional 2 days
Protocol: Subcutaneous A375 xenograft tumors were established in mice. When the tumors reached approximately 300 mm^3, randomly chosen animals were treated with vehicle or 20 mg/kg of CP-dn-CEBPD. The animals were retreated 2 days later and, after an additional 2 days, the animals were sacrificed, and the tumors harvested for histology and TUNEL staining to detect apoptosis. Results are presented in FIG. 42A (vehicle) and FIG. 42B (CP-dn-CEBPD).

[1] = endpoint morbid behavior or tumor >1000 mm^3

Row | Sequence | lowest dose at which growth was inhibited, culture plates (T98G cells) | growth and survival of A375 cells (A375 melanoma cells) | relative levels of BMF transcripts (BMF transcripts) | combination index (CI) with paclitaxel (MCF7 cells) | side effects (animal weight monitored) (HCT116 cells) | animal survival (HCT116 cells; [1]) | tumor growth (calculated tumor volumes) (HCT116 cells; to day 11) | % of apoptotic nuclei with BMF knockdown siRNAs or control siRNA (BMF) | side effects (animal weight monitored) (B16-F10 cells) | tumor growth (calculated tumor volumes) (B16-F10 cells; to day 12-13) | side effects (animal weight monitored) (A375 cells) | animal survival (A375 cells; [1]) | tumor growth (calculated tumor volumes) (A375 cells; to day 28) | apoptosis of tumor cells (TUNEL staining) (A375 xenograft tumors)
1 | RQIKIWFQNRRMKWKKLETQHKVLELTAENERLQKKVEQLSRELSTLRNLFKQL [CP-DN-CEBPB] | 0.5 µM | decrease in growth and survival | upregulate pro-apoptotic BMF | 0.41±0.04 | – | – | – | – | – | – | – | – | – | –
2 | RQIKIWFQNRRMKWKKLVELSAENEKLHQRVEQLTRDLAGLRQFFK [CP-DN-CEBPD] | 0.5 µM | decrease in growth and survival | upregulate pro-apoptotic BMF | 0.44±0.04 | no apparent side effects | increased animal survival | suppressed tumor growth | kills cancer cells by upregulating pro-apoptotic BMF | no apparent side effects | suppressed tumor growth | no apparent side effects | increased animal survival | suppressed tumor growth | causes apoptosis of tumor cells in vivo
